{"source": "paper PMC5218480", "about": "(PLoS ONE, 2017)", "tested_on": "MV-4-11 cells", "test": "Gene expression microarray analysis (Affymetrix PrimeView) and GSEA", "type": "cell-based, human", "design": "RFU PODN (11730768_x_at) / Fold change /veh PODN (11730768_x_at) / RFU LINC00158 (11744669_a_at) / Fold change /veh LINC00158 (11744669_a_at) / RFU DUSP10 (11751237_a_at) / Fold change /veh DUSP10 (11751237_a_at) / RFU ID3 (11757404_x_at) / Fold change /veh ID3 (11757404_x_at) / RFU PLEKHG5 (11737974_s_at) / Fold change /veh PLEKHG5 (11737974_s_at) / RFU LRRC4B (11730491_at) / Fold change /veh LRRC4B (11730491_at) / RFU GIMAP4 (11747438_a_at) / Fold change /veh GIMAP4 (11747438_a_at) / RFU KRT8 (11758183_x_at) / Fold change /veh KRT8 (11758183_x_at) / RFU CNN1 (11734310_a_at) / Fold change /veh CNN1 (11734310_a_at) / RFU VPS37D (11726825_at) / Fold change /veh VPS37D (11726825_at) / RFU C10orf10 (11716522_x_at) / Fold change /veh C10orf10 (11716522_x_at) / RFU KIR2DL2 /// KIR2DL4 /// KIR2DL5A /// KIR2DL5B /// KIR2DS1 /// KIR2DS2 /// KIR2DS3 /// KIR2DS4 /// KIR3DL3 /// KIR3DL3 /// KIR3DS1 (11738374_at) / Fold change /veh KIR2DL2 /// KIR2DL4 /// KIR2DL5A /// KIR2DL5B /// KIR2DS1 /// KIR2DS2 /// KIR2DS3 /// KIR2DS4 /// KIR3DL3 /// KIR3DL3 /// KIR3DS1 (11738374_at) / RFU C1QL1 (11718748_at) / Fold change /veh C1QL1 (11718748_at) / RFU TMPRSS4 (11747572_a_at) / Fold change /veh TMPRSS4 (11747572_a_at) / RFU HAMP (11756126_x_at) / Fold change /veh HAMP (11756126_x_at) / RFU RNFT2 (11725882_a_at) / Fold change /veh RNFT2 (11725882_a_at) / RFU NR4A2 (11747474_a_at) / Fold change /veh NR4A2 (11747474_a_at) / RFU ABCC12 (11746883_a_at) / Fold change /veh ABCC12 (11746883_a_at) / RFU TMEM136 (11760407_x_at) / Fold change /veh TMEM136 (11760407_x_at) / RFU CLDN22 /// WWC2 (11732394_at) / Fold change /veh CLDN22 /// WWC2 (11732394_at) / RFU HLA-DPB1 (11760878_x_at) / Fold change /veh HLA-DPB1 (11760878_x_at) / RFU SPINT1 (11716480_a_at) / Fold change /veh SPINT1 (11716480_a_at) / RFU GAP43 (11754022_s_at) / Fold change /veh GAP43 (11754022_s_at) / RFU A4GNT (11735810_at) / Fold change /veh A4GNT (11735810_at) / RFU PRB3 (11715151_x_at) / Fold change /veh PRB3 (11715151_x_at) / RFU TUBB4B (11761932_at) / Fold change /veh TUBB4B (11761932_at) / RFU CAPN14 (11732068_a_at) / Fold change /veh CAPN14 (11732068_a_at) / RFU TMCC2 (11721928_a_at) / Fold change /veh TMCC2 (11721928_a_at) / RFU IRGQ (11745062_a_at) / Fold change /veh IRGQ (11745062_a_at) / RFU FAM174B (11720279_a_at) / Fold change /veh FAM174B (11720279_a_at) / RFU TMPRSS4 (11748680_a_at) / Fold change /veh TMPRSS4 (11748680_a_at) / RFU FAM212B (11763350_a_at) / Fold change /veh FAM212B (11763350_a_at) / RFU PLEKHG5 (11743358_a_at) / Fold change /veh PLEKHG5 (11743358_a_at) / RFU ZSCAN30 (11745921_a_at) / Fold change /veh ZSCAN30 (11745921_a_at) / RFU CMKLR1 (11741424_a_at) / Fold change /veh CMKLR1 (11741424_a_at) / RFU LOC101060620 /// MAPK8IP1 (11723275_at) / Fold change /veh LOC101060620 /// MAPK8IP1 (11723275_at) / RFU SPTSSB (11747773_x_at) / Fold change /veh SPTSSB (11747773_x_at) / RFU PRSS12 (11739890_at) / Fold change /veh PRSS12 (11739890_at) / RFU BIN1 (11741810_x_at) / Fold change /veh BIN1 (11741810_x_at) / RFU WNT11 (11732464_a_at) / Fold change /veh WNT11 (11732464_a_at) / RFU C10orf10 (11716521_a_at) / Fold change /veh C10orf10 (11716521_a_at) / RFU C5orf56 (11738089_at) / Fold change /veh C5orf56 (11738089_at) / RFU CYB561 (11721691_x_at) / Fold change /veh CYB561 (11721691_x_at) / RFU ANKRD19P (11752326_a_at) / Fold change /veh ANKRD19P (11752326_a_at) / RFU OR2T12 /// OR2T33 /// OR2T8 (11738714_s_at) / Fold change /veh OR2T12 /// OR2T33 /// OR2T8 (11738714_s_at) / RFU VCAN (11748164_a_at) / Fold change /veh VCAN (11748164_a_at) / RFU JSRP1 (11732532_at) / Fold change /veh JSRP1 (11732532_at) / RFU KRTAP10-11 (11738290_x_at) / Fold change /veh KRTAP10-11 (11738290_x_at) / RFU MYO3A (11730013_a_at) / Fold change /veh MYO3A (11730013_a_at) / RFU EBF3 (11725865_a_at) / Fold change /veh EBF3 (11725865_a_at) / RFU CAMK2N1 (11719241_x_at) / Fold change /veh CAMK2N1 (11719241_x_at) / RFU C5orf56 (11738088_a_at) / Fold change /veh C5orf56 (11738088_a_at) / RFU OLFML3 (11715873_a_at) / Fold change /veh OLFML3 (11715873_a_at) / RFU LOC100653217 /// NTM (11731650_a_at) / Fold change /veh LOC100653217 /// NTM (11731650_a_at) / RFU MAPK11 (11762145_a_at) / Fold change /veh MAPK11 (11762145_a_at) / RFU FIZ1 (11724087_x_at) / Fold change /veh FIZ1 (11724087_x_at) / RFU OASL (11726364_x_at) / Fold change /veh OASL (11726364_x_at) / RFU SOX15 (11748057_x_at) / Fold change /veh SOX15 (11748057_x_at) / RFU CD79A (11719716_a_at) / Fold change /veh CD79A (11719716_a_at) / RFU HIST1H1D (11736915_at) / Fold change /veh HIST1H1D (11736915_at) / RFU CASKIN2 (11723855_a_at) / Fold change /veh CASKIN2 (11723855_a_at) / RFU LOC730098 (11760151_x_at) / Fold change /veh LOC730098 (11760151_x_at) / RFU OR4N2 (11742367_at) / Fold change /veh OR4N2 (11742367_at) / RFU PRRT2 (11749266_a_at) / Fold change /veh PRRT2 (11749266_a_at) / RFU SNX32 (11753110_a_at) / Fold change /veh SNX32 (11753110_a_at) / RFU CDHR5 (11726645_a_at) / Fold change /veh CDHR5 (11726645_a_at) / RFU RCAN1 (11760418_a_at) / Fold change /veh RCAN1 (11760418_a_at) / RFU FAM167A (11723789_a_at) / Fold change /veh FAM167A (11723789_a_at) / RFU FAM26E (11764081_at) / Fold change /veh FAM26E (11764081_at) / RFU ISYNA1 (11749810_s_at) / Fold change /veh ISYNA1 (11749810_s_at) / RFU ACY1 (11761880_at) / Fold change /veh ACY1 (11761880_at) / RFU 11764098_at / Fold change /veh 11764098_at / RFU SAMD14 (11745864_x_at) / Fold change /veh SAMD14 (11745864_x_at) / RFU NPB (11741838_a_at) / Fold change /veh NPB (11741838_a_at) / RFU TMPRSS6 (11731388_a_at) / Fold change /veh TMPRSS6 (11731388_a_at) / RFU KRTAP10-2 (11738614_at) / Fold change /veh KRTAP10-2 (11738614_at) / RFU ARHGAP8 /// PRR5-ARHGAP8 (11727945_x_at) / Fold change /veh ARHGAP8 /// PRR5-ARHGAP8 (11727945_x_at) / RFU KRTAP5-7 /// NADSYN1 (11734609_at) / Fold change /veh KRTAP5-7 /// NADSYN1 (11734609_at) / RFU RASL12 (11751679_a_at) / Fold change /veh RASL12 (11751679_a_at) / RFU CDKN2B (11736163_a_at) / Fold change /veh CDKN2B (11736163_a_at) / RFU PRF1 (11729649_at) / Fold change /veh PRF1 (11729649_at) / RFU, ZNF638 /// ZNF638-IT1 / Fold change vs veh, ZNF638 /// ZNF638-IT1 / RFU, PANK3 / Fold change vs veh, PANK3 / RFU, SH3YL1 / Fold change vs veh, SH3YL1 / RFU, ZEB2 / Fold change vs veh, ZEB2 / RFU, NRIP1 / Fold change vs veh, NRIP1 / RFU, PTTG1IP / Fold change vs veh, PTTG1IP / RFU, CAPN2 / Fold change vs veh, CAPN2 / RFU, MED14 / Fold change vs veh, MED14 / RFU, SNORA58 / Fold change vs veh, SNORA58 / RFU, C1orf63 / Fold change vs veh, C1orf63 / RFU, LRRFIP1 / Fold change vs veh, LRRFIP1 / RFU, NDUFAF7 / Fold change vs veh, NDUFAF7 / RFU, SLC12A2 / Fold change vs veh, SLC12A2 / RFU, IBTK / Fold change vs veh, IBTK / RFU, ESF1 / Fold change vs veh, ESF1 / Fold change vs veh, TMEM50B / RFU, TAOK1 / Fold change vs veh, TAOK1 / RFU, ACBD3 / Fold change vs veh, ACBD3 / RFU, TMA16 / Fold change vs veh, TMA16 / RFU, RWDD3 / Fold change vs veh, RWDD3 / RFU, BCAT1 / Fold change vs veh, BCAT1 / RFU, EDEM3 / Fold change vs veh, EDEM3 / RFU, TMEM33 / Fold change vs veh, TMEM33 / RFU, WDR75 / Fold change vs veh, WDR75 / RFU, AHCTF1 / Fold change vs veh, AHCTF1 / RFU, TFRC / Fold change vs veh, TFRC / RFU, ZDHHC17 / Fold change vs veh, ZDHHC17 / RFU, NOM1 / Fold change vs veh, NOM1 / RFU, ARL8B / Fold change vs veh, ARL8B / RFU, ZBTB11 / Fold change vs veh, ZBTB11 / RFU, TAMM41 / Fold change vs veh, TAMM41 / RFU, KIAA1704 /// LOC100996395 / Fold change vs veh, KIAA1704 /// LOC100996395 / RFU, ING1 / Fold change vs veh, ING1 / RFU, TRMT61B / Fold change vs veh, TRMT61B / RFU, FUBP3 / Fold change vs veh, FUBP3 / RFU, TP53 / Fold change vs veh, TP53 / RFU, TNKS2 / Fold change vs veh, TNKS2 / RFU, ZFP14 / Fold change vs veh, ZFP14 / RFU, ACTR2 / Fold change vs veh, ACTR2 / RFU, PPP3R1 / Fold change vs veh, PPP3R1 / RFU, PIK3R1 / Fold change vs veh, PIK3R1 / RFU, HNRNPA1 / Fold change vs veh, HNRNPA1 / RFU, RNF170 / Fold change vs veh, RNF170 / RFU, ZNF28 / Fold change vs veh, ZNF28 / RFU, RNGTT / Fold change vs veh, RNGTT / RFU, OGT / Fold change vs veh, OGT / RFU, BRD1 / Fold change vs veh, BRD1 / RFU, MARS / Fold change vs veh, MARS / RFU, ZNF655 / Fold change vs veh, ZNF655 / RFU, FAHD1 / Fold change vs veh, FAHD1 / RFU, BDP1 / Fold change vs veh, BDP1 / RFU, LRRCC1 / Fold change vs veh, LRRCC1 / RFU, ARID1A / Fold change vs veh, ARID1A / RFU, ZNF146 / Fold change vs veh, ZNF146 / RFU, ZNF330 / Fold change vs veh, ZNF330 / RFU, GPN3 / Fold change vs veh, GPN3 / RFU, C9orf123 / Fold change vs veh, C9orf123 / RFU, N4BP2L2 / Fold change vs veh, N4BP2L2 / RFU, ARFIP1 / Fold change vs veh, ARFIP1 / RFU, FAM179B / Fold change vs veh, FAM179B / RFU, BCL10 / Fold change vs veh, BCL10 / RFU, UHRF1BP1L / Fold change vs veh, UHRF1BP1L / RFU, BET1 / Fold change vs veh, BET1 / RFU, CNOT2 / Fold change vs veh, CNOT2 / RFU, ZNF268 / Fold change vs veh, ZNF268 / Fold change vs veh, ZNF507 / RFU, DGCR2 / Fold change vs veh, DGCR2 / RFU, WDSUB1 / Fold change vs veh, WDSUB1 / Fold change vs veh, HSP90B1 /// MIR3652 / RFU, ADSS / Fold change vs veh, ADSS / RFU, GK / Fold change vs veh, GK / RFU, ZNF148 / Fold change vs veh, ZNF148 / RFU, TAF9 / Fold change vs veh, TAF9 / RFU, SLC1A5 / Fold change vs veh, SLC1A5 / RFU, SLMO2 / Fold change vs veh, SLMO2 / RFU, ABCC4 / Fold change vs veh, ABCC4 / RFU, LOC101060439 /// RAP1B / Fold change vs veh, LOC101060439 /// RAP1B / RFU, RFX7 / Fold change vs veh, RFX7 / RFU, GTPBP10 / Fold change vs veh, GTPBP10 / RFU, CNEP1R1 / Fold change vs veh, CNEP1R1 / RFU, BIVM-ERCC5 /// ERCC5 / Fold change vs veh, BIVM-ERCC5 /// ERCC5 / RFU, ILF3 / Fold change vs veh, ILF3 / RFU 11762660_at / Fold change /veh 11762660_at / RFU VCAN (11757783_s_at) / Fold change /veh VCAN (11757783_s_at) / RFU DDX43 (11728927_at) / Fold change /veh DDX43 (11728927_at) / RFU KRT8 (11758188_x_at) / Fold change /veh KRT8 (11758188_x_at) / RFU NKD1 (11759106_at) / Fold change /veh NKD1 (11759106_at) / RFU SRD5A1 (11742802_a_at) / Fold change /veh SRD5A1 (11742802_a_at) / RFU TPSAB1 /// TPSB2 (11721975_s_at) / Fold change /veh TPSAB1 /// TPSB2 (11721975_s_at) / RFU GSTM3 (11746129_a_at) / Fold change /veh GSTM3 (11746129_a_at) / RFU IL23R (11737362_x_at) / Fold change /veh IL23R (11737362_x_at) / RFU TMEM51 (11727254_a_at) / Fold change /veh TMEM51 (11727254_a_at) / RFU PIWIL2 (11732686_x_at) / Fold change /veh PIWIL2 (11732686_x_at) / RFU ORM1 (11744905_x_at) / Fold change /veh ORM1 (11744905_x_at) / RFU CCDC152 (11743942_at) / Fold change /veh CCDC152 (11743942_at) / RFU ECM1 (11717891_a_at) / Fold change /veh ECM1 (11717891_a_at) / RFU IL23R (11748794_a_at) / Fold change /veh IL23R (11748794_a_at) / RFU TNFAIP8L3 (11732012_x_at) / Fold change /veh TNFAIP8L3 (11732012_x_at) / RFU MBOAT4 (11741988_at) / Fold change /veh MBOAT4 (11741988_at) / RFU 11764193_at / Fold change /veh 11764193_at / RFU TMEM53 (11763286_at) / Fold change /veh TMEM53 (11763286_at) / RFU MAGEB2 (11727129_at) / Fold change /veh MAGEB2 (11727129_at) / RFU TMEM200A (11744735_a_at) / Fold change /veh TMEM200A (11744735_a_at) / RFU CCDC152 (11751479_a_at) / Fold change /veh CCDC152 (11751479_a_at) / RFU FAM211A (11726209_a_at) / Fold change /veh FAM211A (11726209_a_at) / RFU RGS16 (11746705_a_at) / Fold change /veh RGS16 (11746705_a_at) / RFU VCAN (11755009_s_at) / Fold change /veh VCAN (11755009_s_at) / RFU RHOB (11743442_s_at) / Fold change /veh RHOB (11743442_s_at) / RFU RGS16 (11720943_a_at) / Fold change /veh RGS16 (11720943_a_at) / RFU RGS16 (11720944_at) / Fold change /veh RGS16 (11720944_at) / RFU, VPS4B / Fold change vs veh, VPS4B / RFU, CREB1 / Fold change vs veh, CREB1 / RFU, DNAJC13 / Fold change vs veh, DNAJC13 / RFU, GNAQ / Fold change vs veh, GNAQ / RFU, CDK5R1 / Fold change vs veh, CDK5R1 / RFU, ZRANB3 / Fold change vs veh, ZRANB3 / RFU, CUL4A / Fold change vs veh, CUL4A / RFU, CCNY / Fold change vs veh, CCNY / RFU, UFL1 / Fold change vs veh, UFL1 / RFU, COG3 / Fold change vs veh, COG3 / RFU, DIAPH2 / Fold change vs veh, DIAPH2 / RFU, SKA2 / Fold change vs veh, SKA2 / RFU, AFF3 / Fold change vs veh, AFF3 / RFU, LMF1 / Fold change vs veh, LMF1 / RFU, IPO11 / Fold change vs veh, IPO11 / RFU, DFFB / Fold change vs veh, DFFB / RFU, FOXP1 / Fold change vs veh, FOXP1 / RFU, CARD8 / Fold change vs veh, CARD8 / RFU, STRN3 / Fold change vs veh, STRN3 / RFU, ADK / Fold change vs veh, ADK / RFU, RASSF2 / Fold change vs veh, RASSF2 / RFU, WIPF1 / Fold change vs veh, WIPF1 / RFU, LARP1B / Fold change vs veh, LARP1B / RFU, RASA1 / Fold change vs veh, RASA1 / RFU, RB1 / Fold change vs veh, RB1 / RFU, PPFIA1 / Fold change vs veh, PPFIA1 / RFU, MAT2A / Fold change vs veh, MAT2A / RFU, CCT5 / Fold change vs veh, CCT5 / RFU, WDR92 / Fold change vs veh, WDR92 / RFU, CUX1 / Fold change vs veh, CUX1 / RFU, TTC7A / Fold change vs veh, TTC7A / RFU, TMEM135 / Fold change vs veh, TMEM135 / RFU, DEPTOR / Fold change vs veh, DEPTOR / RFU, CPM / Fold change vs veh, CPM / RFU, DNAJB6 / Fold change vs veh, DNAJB6 / RFU, CACNA2D3 / Fold change vs veh, CACNA2D3 / RFU, DTX4 / Fold change vs veh, DTX4 / RFU, TFCP2 / Fold change vs veh, TFCP2 / RFU, GMCL1 /// GMCL1P1 / Fold change vs veh, GMCL1 /// GMCL1P1 / RFU, AEBP2 / Fold change vs veh, AEBP2 / RFU, SNHG1 /// SNORD22 /// SNORD25 /// SNORD26 /// SNORD27 /// SNORD28 /// SNORD29 /// SNORD31 / Fold change vs veh, SNHG1 /// SNORD22 /// SNORD25 /// SNORD26 /// SNORD27 /// SNORD28 /// SNORD29 /// SNORD31 / Fold change (Aza/veh), C12orf56 (ProbeSet 11735607_a_at) / Fold change (ACY-1035/veh), C12orf56 (ProbeSet 11735607_a_at) / Fold change (Aza/veh), FGFR1OP (ProbeSet 11751329_s_at) / Fold change (ACY-1035/veh), FGFR1OP (ProbeSet 11751329_s_at) / Fold change (Aza/veh), VPS36 (ProbeSet 11739960_a_at) / Fold change (ACY-1035/veh), VPS36 (ProbeSet 11739960_a_at) / RFU SYPL1 (11715823_x_at) / Fold change /veh SYPL1 (11715823_x_at) / RFU IGFBP7 (11715501_s_at) / Fold change /veh IGFBP7 (11715501_s_at) / RFU REEP3 (11722064_at) / Fold change /veh REEP3 (11722064_at) / RFU IGLL1 (11728026_x_at) / Fold change /veh IGLL1 (11728026_x_at): dose or concentration left out as unconfirmed", "conditions": "ProbeSet 11716844_s_at; LIST D"}
{"smiles": "Nc1ccc(-c2cccs2)cc1NC(=O)c1ccc2c(c1)cc(C1CC1)n2CCN1CCOCC1", "note": "[ACY-1035]", "values": [{"measurement": "Fold change vs veh, DNAJC13", "value": 0.91}]}
